Measured values: patent US12655173B2, “Hybrid amide derivatives of amphotericin B” (priority 2020, dated 2026)
≈ marks a conversion by molar mass, not a printed value. Read-outs that look alike come from different tables or passages of the source.

Key:
yeast = assay: MICavg / Average MIC against yeasts; type: cell-based
moulds = assay: MICavg / Average MIC against moulds; type: cell-based
[1] = UV-Vis sterol binding assay
Procedure: UV-Vis is Binding Assay (FIG. 1A): The protocol for the sterol binding assay (UV-Vis) was developed in our lab. Compounds were dissolved in DMSO at a final concentration of 1 mM. Sterol were first dissolved in CHCl3 (>200 mM) and then diluted to 1 mM concentration with DMSO To synthesize the complex 1 ul of compound solution was taken in a clean eppendorf tube (2 ml) and sterol solution (volume depends on the stoichiometry) was added to it and the volume was made up to 20 ul with DMSO. 0.98 ml of PBS buffer was added to the Eppendorf tube and mixed properly. The absorbance of the solution was measured after 30 mins of incubation.

[2] = Blood plasma stability, mouse; type: in vitro ADME; details: mouse, blood plasma; read-out: Blood Plasma Stability (T1/2, min) Mouse
A. fumigatus = assay: MIC against moulds; type: cell-based; details: Aspergillus fumigatus
A. flavus = assay: MIC against moulds; type: cell-based; details: Aspergillus flavus
A. niger = assay: MIC against moulds; type: cell-based; details: Aspergillus niger; 6 isolates; AmB (AmBisome)
A. terreus = assay: MIC against moulds; type: cell-based; details: Aspergillus terreus
A. calldoustus = assay: MIC against moulds; type: cell-based; details: 6 isolates; AmB (AmBisome)
A. tubingensis = assay: MIC against moulds; type: cell-based; details: Aspergillus tubingensis, read-out: MIC A. tubingensis
Mucor circinelloides = assay: MIC against moulds; type: cell-based; details: Mucor circinelloides, read-out: MIC Mucor circinelloides
Mucor janssenii = assay: MIC against moulds; type: cell-based; details: Mucor janssenii; 6 isolates; AmB (AmBisome)
Mucor velutinosus = assay: MIC against moulds; type: cell-based; details: Mucor velutinosus; 6 isolates; AmB (AmBisome)
Histoplasma capsulatum = assay: microbe, parasite or virus in culture; type: cell-based; details: Histoplasma capsulatum, read-out: MIC Histoplasma capsulatum
Coccidioides immitis = assay: microbe, parasite or virus in culture; type: cell-based; details: Coccidioides immitis, read-out: MIC Coccidioides immitis
Coccidioides posadasii = assay: microbe, parasite or virus in culture; type: cell-based; details: Coccidioides posadasii, read-out: MIC Coccidioides posadasii
Fusarium solani = assay: MIC against moulds; type: cell-based; details: Fusarium solani
[3] = tested on: P. variotii MYA-3630 (QC); assay: MIC against moulds; type: cell-based; details: Paecilomyces variotii; 5 isolates; AmB (AmBisome)
Cunninghamella sp. = assay: MIC against moulds; type: cell-based; details: Cunninghamella; 6 isolates; AmB (AmBisome)
Licht. Corymbifera = assay: MIC against moulds; type: cell-based; details: Lichtheimia corymbifera; 6 isolates; AmB (AmBisome)
Licht. Ramosa = assay: MIC against moulds; type: cell-based; details: 6 isolates; AmB (AmBisome)
Syncephalastrum sp. = assay: MIC against moulds; type: cell-based; details: Syncephalastrum; 6 isolates; AmB (AmBisome)
Claophialophora bantiana = assay: MIC against moulds; type: cell-based; details: 6 isolates; AmB (AmBisome)
Blastomyces dermatitidis = assay: MIC against moulds; type: cell-based; details: Blastomyces dermatitidis; 5 isolates; AmB (AmBisome)
Fonsecaeu sp. = assay: MIC against moulds; type: cell-based; details: 6 isolates; AmB (AmBisome)
Talaromyces marneffei = assay: MIC against moulds; type: cell-based; details: Talaromyces marneffei; 6 isolates; AmB (AmBisome)
Apophysomyces sp. = assay: MIC against moulds; type: cell-based; details: 3 isolates; AmB (AmBisome)
Saksenaea sp. = assay: MIC against moulds; type: cell-based; details: 4 isolates; AmB (AmBisome)
Candida auris = assay: MIC against yeasts; type: cell-based; details: Candidozyma auris
Candida krusei = assay: MIC against yeasts; type: cell-based; details: Pichia kudriavzevii
Candida parapsilosis = assay: MIC against yeasts; type: cell-based; details: Lodderomyces parapsilosis
Cryptococcus neoformans = assay: MIC against yeasts; type: cell-based; details: Cryptococcus neoformans
Cryptococcus gattii = assay: MIC against yeasts; type: cell-based; details: Cryptococcus gattii
Rhodotorula sp. = assay: MIC against yeasts; type: cell-based; details: Rhodotorula; 6 isolates; Table 3
[4] = tested on: Purpureocillium lilacinum; assay: MIC against rare moulds resistant to AmB; type: cell-based; details: Purpureocillium lilacinum; 6 isolates; Table 4
Scedosporium aurantiacum = assay: MIC against rare moulds resistant to AmB; type: cell-based; details: Scedosporium aurantiacum; 4 isolates; Table 4
Scedosporium boydii = assay: MIC against rare moulds resistant to AmB; type: cell-based; details: Scedosporium boydii; 6 isolates; Table 4
Lomentospora prolificans = assay: MIC against rare moulds resistant to AmB; type: cell-based; details: Lomentospora prolificans; 6 isolates; Table 4
[5] = Liver microsome stability; details: mouse, rat, dog, monkey, human, liver microsomes

For `C[C@@H]1[C@H](O)[C@@H](C)/C=C/C=C/C=C/C=C/C=C/C=C/C=C/[C@H](OC2O[C@H](C)[C@@H](O)[C@H](N)[C@@H]2O)C[C@@H]2O[C@](O)(C[C@@H](O)C[C@@H](O)[C@H](O)CC[C@@H](O)C[C@@H](O)CC(=O)O[C@H]1C)C[C@H](O)[C@H]2C(=O)O` (stereo partly shown) [AmB, Amphotericin B], the “MICavg yeast (5 strains)” value (yeast; 5 strains) was 0.23, the MIC (yeast; 46 isolates, Table 3) was 0.9 µM (≈ 0.832 µg/mL) and the “MICavg yeast (46 strains)” value (yeast; 46 strains) was 0.9. The “MICavg moulds (3 strains)” value (moulds; 3 strains) was 0.92, the MIC (moulds; 157 isolates, Table 2) was 0.9 µM (≈ 0.832 µg/mL) and the “MICavg moulds (159 strains)” value (moulds; 159 strains) was 0.9. The “Binds Cholesterol” value [1] was “Yes”, the half-life [2] was over 289 min and the MIC (A. fumigatus; 5 isolates, AmB (AmBisome)) was 0.71 µM (≈ 0.656 µg/mL). It also gave an MIC (A. fumigatus; 16 isolates, Table 2A) of 2.1 µM (≈ 1.94 µg/mL), an MIC (A. flavus; 3 isolates, Table 2A) of 4 µM (≈ 3.7 µg/mL) and an MIC (A. flavus; 6 isolates, AmB (AmBisome)) of 1.16 µM (≈ 1.07 µg/mL). The MIC (A. niger) was 0.21 µM (≈ 0.194 µg/mL), the MIC (A. terreus; 5 isolates, Table 2A) was 7 µM (≈ 6.47 µg/mL) and the MIC (A. terreus; 6 isolates, AmB (AmBisome)) was 3 µM (≈ 2.77 µg/mL). It also gave an MIC (A. calldoustus) of 1.5 µM (≈ 1.39 µg/mL), an MIC (A. tubingensis) of 0.125 µM (≈ 0.116 µg/mL) and an MIC (Mucor circinelloides) of 0.125 µM (≈ 0.116 µg/mL). It also gave an MIC (Mucor janssenii) of 0.06 µM (≈ 0.0554 µg/mL), an MIC (Mucor velutinosus) of 0.08 µM (≈ 0.0739 µg/mL) and an MIC (Histoplasma capsulatum) of 0.06 µM (≈ 0.0554 µg/mL). The MIC (Coccidioides immitis) was 0.125 µM (≈ 0.116 µg/mL), the MIC (Coccidioides posadasii) was 0.06 µM (≈ 0.0554 µg/mL) and the MIC (Fusarium solani; 2 isolates, Table 3A) was 3 µM (≈ 2.77 µg/mL). The MIC (Fusarium solani; 6 isolates, AmB (AmBisome)) was 1.33 µM (≈ 1.23 µg/mL), the MIC [3] was 1 µM (≈ 0.924 µg/mL) and the MIC (Cunninghamella sp.) was 2 µM (≈ 1.85 µg/mL). It also gave an MIC (Licht. Corymbifera) of 0.23 µM (≈ 0.213 µg/mL), an MIC (Licht. Ramosa) of 0.15 µM (≈ 0.139 µg/mL) and an MIC (Syncephalastrum sp.) of 0.06 µM (≈ 0.0554 µg/mL). For the same compound, the MIC (Claophialophora bantiana) was 0.375 µM (≈ 0.347 µg/mL), the MIC (Blastomyces dermatitidis) was under 0.03 µM and the MIC (Fonsecaeu sp.) was under 0.03 µM. The MIC (Talaromyces marneffei) was 0.09 µM (≈ 0.0832 µg/mL), the MIC (Apophysomyces sp.) was 0.75 µM (≈ 0.693 µg/mL) and the MIC (Saksenaea sp.) was 0.06 µM (≈ 0.0554 µg/mL). The MIC (Candida auris; 10 isolates, Table 3) was 1.2 µM (≈ 1.11 µg/mL), the MIC (Candida auris; 15 isolates, Table 3A) was 2.9 µM (≈ 2.68 µg/mL) and the MIC (Candida krusei; read-out: MIC Candida krasei) was 2.5 µM (≈ 2.31 µg/mL). It also gave an MIC (Candida krusei; 2 isolates, Table 3, read-out: MIC Candida krusei) of 1 µM (≈ 0.924 µg/mL), an MIC (Candida parapsilosis; 6 isolates, Table 3A) of 0.5 µM (≈ 0.462 µg/mL) and an MIC (Candida parapsilosis; 8 isolates, Table 3) of 1.1 µM (≈ 1.02 µg/mL). The MIC (Cryptococcus neoformans; 3 isolates, Table 3A) was 1.17 µM (≈ 1.08 µg/mL), the MIC (Cryptococcus neoformans; 10 isolates, Table 3) was 0.55 µM (≈ 0.508 µg/mL) and the MIC (Cryptococcus gattii; 1 isolate, Table 3A, read-out: MIC Cryptococcus gatti) was 1 µM (≈ 0.924 µg/mL). For the same compound, the MIC (Cryptococcus gattii; 10 isolates, Table 3, read-out: MIC Cryptococcus gattii) was 0.75 µM (≈ 0.693 µg/mL), the MIC (Rhodotorula sp.) was 1 µM (≈ 0.924 µg/mL) and the MIC [4] was over 16 µM. The MIC (Scedosporium aurantiacum) was over 16 µM, the MIC (Scedosporium boydii) was over 16 µM and the MIC (Lomentospora prolificans) was over 16 µM. The half-life [5] was over 2.42 h.
